Measurements reported in patent EP0326628A1, “Method for inhibiting the release of histamine” (VIPONT PHARMACEUTICAL, INC., priority 1988, dated 1989).
Like-named read-outs stand apart in the source and are kept apart here.

Key:
[1] = system: mast cells; test: Histamine release from rat isolated peritoneal mast cells and its inhibition; format: cell-based, male Wistar rat; details: for Histamine Release (%) / inhibition at 5 µM: Sanguinarine 5 µM
Protocol: In exemplifying the invention, mast cells were isolated from the peritoneal fluid of male Wistar rat as described in Sugiyama, K. (1971) Japan J. Pharmacol. 21, 209-226. The mast cells were suspended in a phosphate buffered saline solution consisting of 154 mM sodium chloride, 2.7mM potassium chloride, 0.9 mM calcium chloride, 6.7 mM KH₂PO₄-Na₂HPO₄, (pH 7.3), and 0.01% bovine serum albumin obtained from Sigma.
For the determination of histamine release and its inhibition by sangainarine., mast cells at a cell density of 10⁵ cells/ml suspended in 0.5 ml of phosphate-buffered saline, were incubated at 37°C for 10 minutes with histamine releasers, more about which is stated below. Sanguinarine was added 5 minutes before the specific histamine releaser. After the action was terminated by the addition of 1.5 ml of ice-cold phosphate-buffered saline solution, the samples were centrifuged at 2,000 rpm for 15 minutes. The histamine in the supernatants and precipitates was determined according to the method of Shore, P.A., Burkhalter, A. and Cohn N.H. (1959) J. Pharmacol. Exp Ther. 127, 182-186. Release of histamine was expressed as a percentage of the total cell content. Percentages of inhibition by sanguinarine were measured according to the following equation: [formula] The sanguinarine chloride was provided from Vipont Laboratories Inc. and is manufactured in the manner disclosed above.
Histidine-rich polypetide fraction A, known as HRP(F-A) was purified from human saliva in accordance with the procedure of Sugiyama, K., Suzuki, Y and Furuta, H (1985) Life Sciences. 37, 475-480. The comparison was carried out with known histamine releasers, namely, 48/80; Concanavalin A; calcium-ionophore A23187. These releasers may be obtained from Sigma Co.
With regard to Figure 1, inhibition by sanguinarine of histamine release induced by compound 48/80 is shown. The mast cells were incubated at 37°C for 10 minutes with and without compound 48/80 in the presence of sanguinarine in varying concentrations. (●) Sanguinarine with compound 48/80 (0.5 µ g/ml), (0) Sanguinarine without compound 48/80.

[2] = system: mast cells; details: release produced by compound 48/80, calcium-ionophore A23187, basic peptide 401; read-out: IC50, inhibition of histamine release; cited from earlier work
[3] = system: mast cells; test: Literature (Pearce et al. 1979): inhibition of histamine release produced by compound 48/80, calcium-ionophore A23187 and basic peptide 401; format: cell-based; details: comparison of IC50 with sanguinarine inhibited histamine release
[4] = system: mast cells; details: compound 48/80; read-out: IC50, compound 48/80 induced histamine release; cited from earlier work

C[n+]1cc2c3c(ccc2c2ccc4cc5c(cc4c21)OCO5)OCO3 [Sanguinarine, sanguinarine]
Histamine Release (%) ([1]; A23187 (1 µ M)): 21.1%
Histamine Release (%) ([1]; Compound 48/80 (0.5 µ g/ml)): 15.4%
Histamine Release (%) ([1]; Con A (10 µg/ml) in the presence of phosphatidylserine (10 µ g/ml)): 27.3%
Histamine Release (%) ([1]; HRP (16 µ M)): 17.6%
IC50 ([1]; Rattus norvegicus, Mast cell, 10 min, compound 48/80 (0.5 µ g/ml), 37°C, 10 minutes, Figure 1, read-out: IC50 (inhibition concentration), 48/80 induced histamine release from mast cells): ~2 µM
inhibition at 5 µM ([1]; Rattus norvegicus, Mast cell, A23187 (1 µ M)): 63.4%
inhibition at 5 µM ([1]; Rattus norvegicus, Mast cell, Compound 48/80 (0.5 µ g/ml)): 78.7%
inhibition at 5 µM ([1]; Rattus norvegicus, Mast cell, Con A (10 µg/ml) in the presence of phosphatidylserine (10 µ g/ml)): 56.6%
inhibition at 5 µM ([1]; Rattus norvegicus, Mast cell, HRP (16 µ M)): 69.4%
inhibition at 5 µM ([1]; Rattus norvegicus, Mast cell, Triton X-100 (0.01 %)): -10.6%
Histamine Release (%) ([1]; Triton X-100 (0.01 %)): 93.8%

O=C(O)c1cc(=O)c2c(OCC(O)COc3cccc4oc(C(=O)O)cc(=O)c34)cccc2o1 [cromoglycate]
IC50 [2]: 10 to 1000 µM
times less active than sanguinarine [3]: 10 to 100 times

C[C@]12CCC(=O)C=C1CC[C@@H]1[C@@H]2[C@@H](O)C[C@@]2(C)[C@H]1CC[C@]2(O)C(=O)CO [hydrocortisone]
IC50 [4]: 2100 µM

COc1ccc2c(c1)c(CC(=O)O)c(C)n2C(=O)c1ccc(Cl)cc1 [indomethacin]
IC50 [4]: 75 µM

O=C([O-])c1ccccc1O.[Na+] [sodium salicylate]
IC50 [4]: 1600 µM

Cn1c(=O)c2[nH]cnc2n(C)c1=O [theophylline]
IC50 [2]: 10 to 1000 µM
times less active than sanguinarine [3]: 10 to 100 times
